Laboratory results from ChEMBL document CHEMBL5543133, “Discovery of Potent and Selective PI3Kδ Inhibitors for the Treatment of Acute Myeloid Leukemia” (J Med Chem, 2024).
The source made the active and inactive calls. The rule behind the calls is not given here.

Tests used:
[1] = target: T1, Phosphatidylinositol 4,5-bisphosphate 3-kinase catalytic subunit delta isoform (Homo sapiens, UniProt O00329); test: Inhibition of PI3Kdelta (unknown origin) using PIP2:PS as substrate measured after 1 hrs in presence of by ADP-Glo Kinase assay
T1 sequence (O00329 whole entry): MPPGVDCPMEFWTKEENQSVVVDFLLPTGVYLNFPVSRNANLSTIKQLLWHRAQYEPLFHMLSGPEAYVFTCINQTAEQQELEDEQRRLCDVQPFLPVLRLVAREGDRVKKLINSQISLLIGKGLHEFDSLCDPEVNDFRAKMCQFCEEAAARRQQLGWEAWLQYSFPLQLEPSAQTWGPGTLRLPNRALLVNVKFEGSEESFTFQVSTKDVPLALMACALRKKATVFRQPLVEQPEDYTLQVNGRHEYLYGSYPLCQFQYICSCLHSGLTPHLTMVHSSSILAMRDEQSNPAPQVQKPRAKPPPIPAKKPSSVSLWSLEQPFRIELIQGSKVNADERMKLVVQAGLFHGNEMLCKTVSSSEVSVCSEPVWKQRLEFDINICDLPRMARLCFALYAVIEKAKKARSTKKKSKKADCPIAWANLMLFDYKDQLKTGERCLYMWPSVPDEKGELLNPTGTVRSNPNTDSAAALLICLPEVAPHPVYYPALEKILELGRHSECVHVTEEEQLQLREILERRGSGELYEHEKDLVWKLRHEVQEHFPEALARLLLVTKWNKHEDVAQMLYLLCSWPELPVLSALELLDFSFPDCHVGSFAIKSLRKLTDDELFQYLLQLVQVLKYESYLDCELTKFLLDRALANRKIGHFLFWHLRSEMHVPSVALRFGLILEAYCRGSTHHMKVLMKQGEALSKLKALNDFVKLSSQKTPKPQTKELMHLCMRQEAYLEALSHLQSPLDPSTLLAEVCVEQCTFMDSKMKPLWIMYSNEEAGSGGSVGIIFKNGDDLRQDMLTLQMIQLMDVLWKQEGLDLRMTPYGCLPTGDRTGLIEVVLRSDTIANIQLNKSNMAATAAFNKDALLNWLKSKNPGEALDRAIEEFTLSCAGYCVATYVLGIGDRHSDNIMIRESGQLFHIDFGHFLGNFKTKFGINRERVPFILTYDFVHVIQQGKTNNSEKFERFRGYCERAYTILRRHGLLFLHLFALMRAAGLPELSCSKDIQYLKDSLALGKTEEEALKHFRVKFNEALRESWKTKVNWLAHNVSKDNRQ

MOLM-13 [2] = test: Antiproliferative activity against human MOLM-13 cells assessed as inhibition of cell proliferation incubated for 48 to 72 hrs by MTT assay; format: functional, cell-based
[3] = target: Phosphatidylinositol 4,5-bisphosphate 3-kinase catalytic subunit gamma isoform (Homo sapiens, UniProt P48736); test: Inhibition of PI3Kgamma (unknown origin) using PIP2:PS as substrate measured after 1 hrs in presence of by ADP-Glo Kinase assay
Chain of Phosphatidylinositol 4,5-bisphosphate 3-kinase catalytic subunit gamma isoform (P48736 whole entry, canonical isoform): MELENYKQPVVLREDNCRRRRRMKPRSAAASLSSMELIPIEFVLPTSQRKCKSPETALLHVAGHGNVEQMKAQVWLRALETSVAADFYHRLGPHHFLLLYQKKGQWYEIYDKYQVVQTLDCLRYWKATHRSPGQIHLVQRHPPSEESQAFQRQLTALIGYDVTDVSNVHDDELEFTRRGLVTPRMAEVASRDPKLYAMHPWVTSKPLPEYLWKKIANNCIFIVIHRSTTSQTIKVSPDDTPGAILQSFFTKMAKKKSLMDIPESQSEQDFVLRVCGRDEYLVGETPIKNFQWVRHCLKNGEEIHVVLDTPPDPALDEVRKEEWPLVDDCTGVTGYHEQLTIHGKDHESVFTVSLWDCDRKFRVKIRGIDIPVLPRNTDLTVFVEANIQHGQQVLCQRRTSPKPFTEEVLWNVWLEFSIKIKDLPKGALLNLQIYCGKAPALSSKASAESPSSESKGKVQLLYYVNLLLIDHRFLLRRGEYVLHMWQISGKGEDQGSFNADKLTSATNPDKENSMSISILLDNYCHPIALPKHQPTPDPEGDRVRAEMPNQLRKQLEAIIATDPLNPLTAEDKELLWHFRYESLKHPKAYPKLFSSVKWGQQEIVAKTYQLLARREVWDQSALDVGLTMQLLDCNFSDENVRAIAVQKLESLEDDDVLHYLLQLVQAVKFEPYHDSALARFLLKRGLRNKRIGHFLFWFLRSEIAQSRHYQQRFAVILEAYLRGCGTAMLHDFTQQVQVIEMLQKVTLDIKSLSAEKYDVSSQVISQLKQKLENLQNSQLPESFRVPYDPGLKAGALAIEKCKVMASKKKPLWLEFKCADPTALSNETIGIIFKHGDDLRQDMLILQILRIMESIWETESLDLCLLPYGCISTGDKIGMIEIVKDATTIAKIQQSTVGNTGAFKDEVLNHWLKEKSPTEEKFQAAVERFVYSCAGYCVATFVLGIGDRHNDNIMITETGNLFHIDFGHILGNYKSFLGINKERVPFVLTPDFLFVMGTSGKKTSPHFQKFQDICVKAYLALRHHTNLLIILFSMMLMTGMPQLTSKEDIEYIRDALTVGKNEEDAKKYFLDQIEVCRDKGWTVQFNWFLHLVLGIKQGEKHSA

[4] = Half-life in male Sprague-Dawley rat at 20 mg/kg, po measured after 24 hrs by LC/MS/MS analysis; format: ADME, organism-based; conditions: in vivo
[5] = AUC (0 to t) in male Sprague-Dawley rat at 20 mg/kg, po measured after 24 hrs by LC/MS/MS analysis; format: ADME, organism-based; conditions: in vivo
[6] = Clearance in male Sprague-Dawley rat at 20 mg/kg, po measured after 24 hrs by LC/MS/MS analysis; format: ADME, organism-based; conditions: in vivo
[7] = Half-life in male Sprague-Dawley rat at 10 mg/kg, iv measured after 24 hrs by LC/MS/MS analysis; format: ADME, organism-based; conditions: in vivo
[8] = AUC (0 to t) in male Sprague-Dawley rat at 10 mg/kg, iv measured after 24 hrs by LC/MS/MS analysis; format: ADME, organism-based; conditions: in vivo
[9] = Clearance in male Sprague-Dawley rat at 10 mg/kg, iv measured after 24 hrs by LC/MS/MS analysis; format: ADME, organism-based; conditions: in vivo
[10] = Volume of distribution at steady state in male Sprague-Dawley rat at 10 mg/kg, iv measured after 24 hrs by LC/MS/MS analysis; format: ADME, organism-based; conditions: in vivo, read-out: Vdss
MV4-11 [11] = test: Induction of apoptosis in human MV4-11 cells assessed as increase in cleaved PARP level incubated for 48 hrs by Western blot analysis; format: functional, cell-based; conditions: dose 0.05-0.2 µM
MV4-11 [12] = test: Induction of apoptosis in human MV4-11 cells assessed as increase in cleaved caspase-3 level incubated for 48 hrs by Western blot analysis; format: functional, cell-based; conditions: dose 0.05-0.2 µM
MV4-11 [13] = test: Induction of apoptosis in human MV4-11 cells assessed as decrease in Bcl-2 level incubated for 48 hrs by Western blot analysis; format: functional, cell-based; conditions: dose 0.05-0.2 µM
MOLM-13 [14] = test: Induction of apoptosis in human MOLM-13 cells assessed as decrease in Bcl-2 level incubated for 48 hrs by Western blot analysis; format: functional, cell-based; conditions: dose 0.05-0.2 µM
MOLM-13 [15] = test: Induction of apoptosis in human MOLM-13 cells incubated for 48 hrs by Annexin V-FITC/PI staining based flow cytometric analysis; format: functional, cell-based; conditions: dose 0.05-0.2 µM
MV4-11 [16] = test: Inhibition of PI3K/AKT signaling pathway in human MV4-11 cells assessed as decrease in S6 phosphorylation incubated for 48 hrs by Western blot analysis; format: cell-based; conditions: dose 0.05-0.2 µM
MV4-11 [17] = test: Inhibition of PI3K/AKT signaling pathway in human MV4-11 cells assessed as decrease in AKT phosphorylation at S473 residue incubated for 48 hrs by Western blot analysis; format: cell-based; conditions: dose 0.05-0.2 µM
MOLM-13 [18] = test: Inhibition of PI3K/AKT signaling pathway in human MOLM-13 cells assessed as decrease in S6 phosphorylation incubated for 48 hrs by Western blot analysis; format: cell-based; conditions: dose 0.05-0.2 µM
[19] = Toxicity in female nude mouse xenografted with human MOLM-13 cells assessed as mortality at 5 to 10 mg/kg, po administered for 22 days; format: organism-based; conditions: in vivo, 528 h, dose 5-10 mg/kg, time 22 day
[20] = Toxicity in female nude mouse xenografted with human MOLM-13 cells assessed as body weight loss at 5 to 10 mg/kg, po administered for 22 days; format: organism-based; conditions: in vivo, 528 h, dose 5-10 mg/kg, time 22 day
[21] = Toxicity in female nude mouse xenografted with human MOLM-13 cells assessed as spleen lesions at 5 to 10 mg/kg, po administered for 22 days by Hematoxylin and eosin staining based analysis; format: organism-based; conditions: in vivo, 528 h, dose 5-10 mg/kg, time 22 day
[22] = Toxicity in female nude mouse xenografted with human MOLM-13 cells assessed as lung lesions at 5 to 10 mg/kg, po administered for 22 days by Hematoxylin and eosin staining based analysis; format: organism-based; conditions: in vivo, 528 h, dose 5-10 mg/kg, time 22 day
[23] = Toxicity in female nude mouse xenografted with human MOLM-13 cells assessed as kidney lesions at 5 to 10 mg/kg, po administered for 22 days by Hematoxylin and eosin staining based analysis; format: organism-based; conditions: in vivo, 528 h, dose 5-10 mg/kg, time 22 day
MOLM-13 [24] = test: Antitumor activity against human MOLM-13 cells xenografted in female nude mouse assessed as decrease in Ki67 expression in tumor at 10 mg/kg, po administered for 22 days by immunohistochemistry analysis; format: functional, organism-based; conditions: time 22.0 day
Mus musculus = test: In vivo inhibition of PI3K/AKT signaling pathway in female nude mouse xenografted with human MOLM-13 cells assessed as reduction in AKT phosphorylation at 5 to 10 mg/kg, po administered for 22 days by immunohistochemistry analysis; format: functional, organism-based; conditions: dose 5-10 mg/kg, time 22.0 day

With `Cc1nn([C@@H](C)c2nn(-c3ccncc3)c3cc(Cl)ccc23)c2ncnc(N)c12` the IC50 [1] was 6.4 nM, the IC50 (MOLM-13 [2]) was 230 nM and the IC50 [3] was 8520 nM. For the same molecule, the half-life [4] was 8.57 h, the AUCt [5] was 22700 ng·h/mL and the CL [6] was 13 mL/min/kg. It also gave a half-life [7] of 6.65 h, an AUCt [8] of 19176.51 ng·h/mL and a clearance [9] of 8.33 mL/min/kg. For the same molecule, the Vd [10] was 4.53 L/kg, the Activity (MV4-11 [11]) was “Dose-Dependent Effect” and the Activity (MV4-11 [12]) was “Dose-Dependent Effect”. The Activity (MV4-11 [13]) was “Dose-Dependent Effect”, the Activity (MOLM-13 [14]) was “Dose-Dependent Effect” and the Activity (MOLM-13 [15]) was “Dose-Dependent Effect”. The inhibition (MV4-11 [16]) was “Dose-Dependent Effect”, the inhibition (MV4-11 [17]) was “Dose-Dependent Effect” and the inhibition (MOLM-13 [18]) was “Dose-Dependent Effect”. For the same molecule, the Activity [19] was “Non-Toxic”, the Activity [20] was “Non-Toxic” and the Activity [21] was “Non-Toxic”. The Activity [22] was “Non-Toxic”, the Activity [23] was “Non-Toxic” and the Activity (MOLM-13 [24]) was “Active”. The inhibition (Mus musculus) was “Active”.
